The source of these data is US8623889B2, “Substituted 6,6-fused nitrogenous heterocyclic compounds and uses thereof” (Genentech, Inc., priority 2010, dated 2014).

One assay relates to HL-60 cells. As to the kind of experiment: HL-60 cell proliferation assay (CellTiter-Glo). The format is cell-based. The conditions noted are these: 4 days incubation. The text has this: HL-60 cells are a Philadelphia Chromosome Negative (Ph-) cell line that serve as a control for the K-562 proliferation assay. Compounds that exert their activity by inhibition of Abl kinase should not inhibit proliferation of HL-60 cells unless such activity is due to off-target activity. This assay determines the number of viable cells in a culture by quantification of ATP. Promega's CellTiter-Glo® Luminescent Cell Viability Assay (CTG) is the reagent used for this determination. The assay is homogenous. Addition of the CTG reagent results in cell lysis and generation of a luminescent signal through the luciferase reaction. The luminescent signal is proportional to the amount of ATP present. For compounds that interfere with cell division and/or have effects on cell size, the readout is not necessarily proportional to cell number/viability. […] Cytostatic: Luminescence counts should be equivalent to counts obtained from a Day 0 read; and Cytotoxic: Luminescence counts should be equivalent to background. • Seed cells at 20000 cells/well in 20 ul cell plating media into a 384 well cell plate. […] Incubate in humidified CO2 incubator • Day 4a: Add 40 uL of Cell Titer-Glo solution • Day 4b: Incubate CTG reaction • Day 4c: Read luminescence

For a further assay, the system named is K-562 cells. The experiment in a line: K-562 cell proliferation assay (CellTiter-Glo). The format is cell-based. The conditions noted are these: Homo sapiens, K562, 96 h; expected value of assay standard; 4 days incubation; read-out: EC50 to inhibit K-562 cell growth. The source says: The luminescent signal is proportional to the amount of ATP present.

Turning to `CS(=O)(=O)O.Cc1ccc(NC(=O)c2ccc(CN3CCN(C)CC3)cc2)cc1Nc1nccc(-c2cccnc2)n1` [CAS NO 220127-57-1], in the assay with HL-60 cells (expected result of assay standard), the “EC50 to inhibit HL-60 cell growth (in words)” value was “Inactive”. Turning to `COC(=O)Nc1nc2ccc(C(=O)c3cccs3)cc2[nH]1` [Nocodazole], the EC50 was about 40 nM in the assay on HL-60 cells (Homo sapiens, HL-60, 96 h, expected value of assay standard, read-out: EC50 to inhibit HL-60 cell growth) and about 40 nM in the assay with K-562 cells.
